# Test results as given in patent US20240108654A1, “COMBINATION OF A T CELL THERAPY AND A DGK INHIBITOR” (Juno Therapeutics, Inc., priority 2021, published 2024).
# How the values were obtained:
# [1] = system: anti-CD19 CAR-expressing T cells; test: Cytokine production (MSD) of CAR-T cells concurrently treated during chronic stimulation, 3D tumor spheroids; type: cell-based, human; settings: concurrent treatment during chronic stimulation; five days 3D co-culture with A549.CD19 and Granta-519 spheroids
# Procedure: (§1) To simulate conditions of chronic stimulation, approximately 20,000 anti-CD19 CAR-expressing T cells of a combined CAR-T cell composition produced as described in Example 1 from two healthy adult donors were incubated with 30 μg/mL of plate-bound CAR-specific anti-idiotypic antibody (see, e.g., WO2018/023100) at 37° C. for a period of seven days. During this seven-day period, engineered CAR T cells were concurrently treated with Compound 17 (0.1-1000 nM) or a vehicle control added at day 0.
# (§2) To further assess activity of chronically stimulated cell, the chronically stimulated CAR-T cells that had been concurrently treated with DGKi were incubated with A549 CD19+ tumor spheroids or Granta-519 tumor spheroids to rechallenge the CAR-T cells at an effector to target ratio of 1:2 for up to 14 days. The tumor spheroids were engineered to express a red fluorescent dye to permit monitoring of tumor cell lysis by microscopy during the assay.
# (§3) Supernatant was collected at day 5 from the above tumor spheroid cultures with chronically stimulated CAR-expressing T cells. Cytokine production was measured from the supernatant by meso scale discovery (MSD) analysis of the collected cell supernatants. […] Duplicate values for cell compositions manufactured from the two different healthy donors are shown.
# [2] = system: anti-CD19 CAR-expressing T cells; test: Cytolytic activity of CAR-T cells concurrently treated during chronic stimulation, 3D tumor spheroids; type: cell-based, human; settings: concurrent treatment during chronic stimulation; A549.CD19 and Granta-519 spheroids, day 9
# Procedure: as §1, §2
# The antigen-specific cytolytic activity of the chronically stimulated CAR-expressing T cells was assessed by monitoring fluorescence (indicative of tumor cell lysis) over time. The tumor volume (normalized to time zero) was measured as the number of red calibrated units (RCU)×μm^2 area. […] Duplicate values for cell compositions manufactured from the two different healthy donors are shown.
# [3] = system: anti-CD19 CAR-expressing T cells; test: T cell viability in acute stimulation assays; type: cell-based, human
# [4] = system: anti-CD19 CAR-expressing T cells; test: Cytolytic activity of CAR-T cells concurrently treated during chronic stimulation, 2D re-challenge with CD19-expressing lymphoma cells; type: cell-based, human; settings: concurrent treatment during chronic stimulation; 2D re-challenge with K562.CD19, Granta-519, Raji without compound; higher concentrations
# Procedure: as §1
# (§4) Stimulated CAR T cells were then re-challenged with CD19-expressing tumor cells or tumor spheroids in the absence of Compound 17, and cytolytic activity and cytokine production were assessed.
# To assess cytolytic function, the stimulated CAR-T cell composition was co-cultured with various CD19-expressing lymphoma cells at a 2.5:1 effector:target ratio. The tumor cells were engineered to express NucLight Red (NLR) and tumor cell number was monitored by Incucyte®. […] Duplicate values for cell compositions manufactured from the two different healthy donors are shown.
# [5] = system: anti-CD19 CAR-expressing T cells; test: Cytokine production (MSD) of CAR-T cells concurrently treated during chronic stimulation, 2D co-culture; type: cell-based, human; settings: concurrent treatment during chronic stimulation; 48 hours 2D co-culture with K562.CD19, Granta-519, Raji
# Procedure: as §1, §4
# as §3, with “after 48 hours” for “at day 5”, “co-cultures of” for “tumor spheroid cultures with”, “T cells and CD19-expressing tumor” for “T”
# [6] = system: anti-CD19 CAR-expressing T cells; test: Rescue treatment of chronically stimulated CAR-T cells: cytolytic activity, 3D tumor spheroids; type: cell-based, human; settings: rescue treatment during co-culture; A549.CD19 and Granta-519 spheroids, day 9
# Procedure: Anti-CD19 CAR-expressing T cells, produced as described in Example 1, were chronically stimulated with plate-bound CAR-specific anti-idiotypic antibody for seven days as described in Example 2, but in the absence of Compound 17 during chronic stimulation. Instead, chronically stimulated CAR T cells were treated with Compound 17 during re-challenge with CD19-expressing tumor cells, after which cytolytic activity and cytokine production were assessed.
# Cytolytic activity also was assessed in CD19-expressing tumor spheroid cultures incubated with chronically stimulated CAR-T cells in the presence of DGKi. A549 CD19+ tumor spheroids or Granta-519 tumor spheroids were incubated with the anti-CD19 CAR-expressing T cells at an effector to target ratio of 1:2 for up to 14 days in the presence of DGKi (0-1000 nM). The tumor spheroids were engineered to express a red fluorescent dye to permit monitoring of tumor cell lysis by microscopy during the assay. Cytolytic activity was assessed by monitoring fluorescence over time, and the tumor volume (normalized to time zero) was measured as the number of red calibrated units (RCU)×μm^2 area. […] Duplicate values for cell compositions manufactured from the two different healthy donors are shown.
# [7] = system: Human venous whole blood; test: Human whole blood IFN-γ assay; type: cell-based; settings: anti-CD3 and anti-CD28 1 μg/mL each, 24 hours; 3 μM reference compound as 100% activation; read-out: INFg Whole Blood Normalized Agonist EC50
# Procedure: Human venous whole blood (22.5 μL per well), obtained from healthy donors, was pre-treated with compounds for one hour at 37° C. in a humidified 95% air/5% CO2 incubator. The blood was stimulated with 2.5 μL anti-human CD3 and anti-CD28 mAb at a final concentration of 1 μg/mL each for 24 hours at 37° C. IFN-γ in the supernatants was measured using ALphLISA kit (Cat #AL217).
# [8] = system: anti-HPV16 eTCR T cells; test: Rescue treatment of chronically stimulated eTCR T cells: cytolytic function against HPV-expressing CaSki cells; type: cell-based, human; settings: 100 nM compound during co-culture, 2.5:1 effector:target; eTCR cells pre-stimulated with 10 or 20 μg/mL anti-Vbeta
# Description: Primary human CD4+ and CD8+ T cells were isolated from healthy donors by immunoaffinity-based methods. The isolated CD4+ and CD8+ T cells were combined and stimulated with an anti-CD3/anti-CD28 reagent, and then were transduced with a lentiviral vector encoding an anti-human papillomavirus 16 (anti-HPV16) eTCR. The nucleotide sequences encoding the beta chain and the alpha chain of the eTCR were separated by a sequence encoding a 2A ribosome skip element. Following transduction, the cells were cultured in media containing human serum and cytokines for 9-10 days prior to further assessment. To assess the effects of rescue treatment with Compound 17 on cytolytic function, eTCR cells were stimulated for six days using 10 μg/mL or 20 μg/mL plate-bound antibody against the TCR Vbeta chain in the absence of Compound 17. Following chronic stimulation, the eTCR-T cells were co-cultured with HPV-expressing CaSki cells at a 2.5:1 effector:target ratio in the presence of Compound 17 at 100 nM. As a control, chronically stimulated eTCR cells were co-cultured with CaSki cells in the absence of Compound 17. The CaSki cells were transduced with NucLight Red (NLR) and tumor cell number was monitored by Incucyte®.
# [9] = system: anti-CD19 CAR-expressing T cells; test: T cell proliferation during acute stimulation with plate-bound anti-CAR anti-idiotypic antibody (Incucyte confluence); type: cell-based, human; settings: 30 μg/mL plate-bound anti-idiotypic antibody, seven days, compound present during stimulation
# Procedure: T cell proliferation during stimulation with 30 μg/mL of plate-bound anti-CAR anti-idiotypic antibody in the presence of Compound 17 was monitored for seven days using an Incucyte imaging system. Cell proliferation was monitored by analyzing the occupied area (% confluence) of cell images over time; as cells proliferate, the confluence increases.
# Triplicate values for cell compositions manufactured from the two different healthy donors are shown.
compound,measurement,setting,value
"CC[C@H]1CN([C@@H](CC)c2ccc(C(F)(F)F)cc2)[C@H](CC)CN1c1nc(=O)n(C)c2ccc(C#N)nc12 [Compound 17, 4-((2S,5R)-2,5-diethyl-4-((S)-1-(4-(trifluoromethyl)phenyl)propyl)piperazin-1-yl)-1-methyl-2-oxo-1,2-dihydropyrido[3,2-d]pyrimidine-6-carbonitrile]","production of IFNγ, IL-2 and TNFα in supernatant",[1],dose-dependent increase in production of all three cytokines
same,CAR-T cell cytolytic activity (normalized tumor volume),[2],modestly reduced the cytolytic activity
same,T cell viability,[3],no impact
same,CAR-T cell cytolytic activity (tumor cell number),[4],decreased the cytolytic activity
same,"production of IFNγ, IL-2 and TNFα in supernatant",[5],dose-dependent increase in production of all three cytokines
same,CAR-T cell cytolytic activity (normalized tumor volume),[6],improved the cytolytic activity
same,EC50,[7],20 nM
same,cytolytic function of chronically stimulated eTCR cells (CaSki tumor cell number),[8],able to improve cytolytic function
same,T cell proliferation (% confluence),[9],did not affect T cell proliferation
